The values that follow are results of earlier work, collected in patent US8815262B2, “Pharmaceutical composition and preparation for oral administration” (FUJIFILM Corporation, priority 2010, dated 2014).

For the data set the following is noted: oral administration.

With `CC(=O)O[C@H]1C(=O)[C@@]2(C)[C@H]([C@H](OC(=O)c3ccccc3)[C@]3(O)C[C@H](OC(=O)[C@H](O)[C@@H](NC(=O)c4ccccc4)c4ccccc4)C(C)=C1C3(C)C)[C@]1(OC(C)=O)CO[C@@H]1C[C@@H]2O` [paclitaxel], the bioavailability is recorded as not above 4%.

The term bioavailability denotes the share of a dose that reaches the circulation, judged against a reference dose that is usually intravenous.
